Measurements as given in PubChem BioAssay (NCI).
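How tested: cells in 96-well plates exposed to compound for 48 hours at five concentrations. The concentration for 50% growth inhibition is given as GI50. At the TGI there is no net growth.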

Assays:
Experiment in all cases: NCI anticancer screen, dose series, 48 h
[1] = tested on: BT-549 breast
[2] = tested on: CAKI-1 renal
[3] = tested on: COLO 205 colon
[4] = tested on: HS 578T breast
[5] = tested on: K-562 leukemia
[6] = tested on: OVCAR-4 ovarian
[7] = tested on: RPMI-8226 leukemia
[8] = tested on: SN12C renal
[9] = tested on: TK-10 renal
[10] = tested on: HOP-92 NSCLC

SMILES	TGI [1] [µM]	TGI [2] [µM]	TGI [3] [µM]	TGI [4] [µM]	TGI [5] [µM]	TGI [6] [µM]	TGI [7] [µM]	TGI [8] [µM]	TGI [9] [µM]	TGI [10] [µM]	GI50 [1] [µM]	GI50 [2] [µM]	GI50 [3] [µM]	GI50 [10] [µM]	GI50 [4] [µM]	GI50 [5] [µM]	GI50 [6] [µM]	GI50 [7] [µM]	GI50 [8] [µM]	GI50 [9] [µM]
Cc1ncc(CO)c(CN)c1O	> 100	> 100	> 100	> 100	> 100	> 100	> 100	> 100	> 100	–	–	–	–	–	–	–	–	–	–	–
CN(C)CCNC(=O)c1cccc2nc3c4ccccc4c4ccccc4c3nc12	6.25	47.7	19.3	–	3.57	3.24	5.3	3.64	9.86	39.4	–	–	–	–	–	–	–	–	–	–
COc1cc2c(cc1OC)C(Cl)C(c1ccc(Cl)cc1)=C2Cl (stereo not given)	–	40.3	32.2	–	32.9	–	45.6	48.6	43.4	32.3	–	–	–	–	–	–	–	–	–	–
CCN(CC)Cc1ccc2cccnc2c1O	> 100	> 100	42	> 100	> 100	> 100	23.7	47.2	33.1	> 100	–	–	–	–	–	–	–	–	–	–
C[C@@H]1CC[C@H]2C(COC/C=C/COCC3=C(C(F)(F)F)O[C@@H]4O[C@@]5(C)CC[C@H]6[C@H](C)CC[C@@H]3[C@@]46OO5)=C(C(F)(F)F)O[C@@H]3O[C@@]4(C)CC[C@@H]1[C@]32OO4	> 100	–	–	> 100	> 47	> 100	> 100	0.685	> 100	–	0.0644	0.158	< 0.0174	< 0.032	0.0429	< 0.0116	0.518	< 0.01	0.0191	0.036
O=C(c1cc(Br)ccc1O)c1cc(Br)ccc1O	33.9	32.2	33.4	> 100	33.5	30.2	30.4	32.6	33	27.1	–	–	–	–	–	–	–	–	–	–
Cn1cnc([N+](=O)[O-])c1SCC(=O)O	> 100	> 100	> 100	> 100	> 100	> 100	> 100	> 100	> 100	> 100	–	–	–	–	–	–	–	–	–	–
Oc1cc(O)cc(/C=C/c2ccc(O)c(O)c2)c1	–	> 30.8	> 62.1	–	> 58.9	> 100	> 93.8	40.8	–	50.3	–	–	–	–	–	–	–	–	–	–
NCS(=O)(=O)O	> 100	> 100	> 100	> 100	> 100	> 100	> 100	> 100	> 100	> 100	–	–	–	–	–	–	–	–	–	–
COc1cc2ccc1-c1cc(ccc1O)CC1c3cc4c(cc3CCN1C)Oc1c(OC)cc3c(c1O4)C(C2)N(C)CC3 (stereo not given)	–	5.79	–	–	3.27	3.72	4.75	3.96	24.7	27	–	–	–	–	–	–	–	–	–	–
O=C(CC1(O)C(=O)Nc2ccc(Br)cc21)c1ccc(C(=O)NCC2CCC3(CC2)OOC2(CCCCC2)OO3)cc1 (stereo not given)	32.7	31.2	25.5	> 100	–	72.3	4.47	34.9	11.9	4.46	7.28	13.5	3.74	1.9	9.26	–	6.93	1.65	10.4	3.71
COc1cnc2c(c1)C(=O)c1c-2n(CCCN2CCNCC2)c(=O)c2cc(Cl)ccc12	–	1.91	2.41	–	–	2.73	–	–	–	13.7	–	0.414	0.783	1.12	–	–	1.17	–	–	–
c1ccc2c[n+](CCCCCCCCCC[n+]3ccc4ccccc4c3)ccc2c1	> 10	> 10	> 10	> 10	> 10	> 10	> 10	> 8.94	> 10	> 10	–	–	–	–	–	–	–	–	–	–
O=C1c2ccccc2C(=O)c2c(NCCNC(=O)C3CCCN3)ccc(NCCNC(=O)C3CCCN3)c21 (stereo not given)	> 100	> 100	> 100	> 100	52.2	> 100	58.8	> 100	> 100	> 100	–	–	–	–	–	–	–	–	–	–
Cc1ccc(C)c(/C(=N\N=C(N)N)C2CC2)c1	95.3	> 100	> 100	> 100	69.6	> 100	> 100	> 100	> 100	> 100	–	–	–	–	–	–	–	–	–	–
CCOC(=O)c1c2c(c(O)c3ccccc3c(O)n(-c3ccc(C)cc3)c1C)C(=O)C=CC2=O	71.2	43.3	48.5	66	47.2	29.9	30.3	58.9	57.2	56.9	–	–	–	–	–	–	–	–	–	–
O=C(CSCC(=O)N/N=C/c1cccc(OCc2ccccc2)c1)N/N=C/c1cccc(OCc2ccccc2)c1	> 100	> 100	> 100	> 100	> 100	> 100	39.9	> 74	> 100	97.2	–	–	37.5	–	–	–	–	–	–	–
Cc1c2ccnc(-c3ccccc3)c2cc2c1[nH]c1ccccc12	–	6.96	6.1	–	5.38	32.7	8.25	7	–	3.12	–	–	–	–	–	–	–	–	–	–
CC(C)CNc1nc(N)[nH]c(=O)c1NC=O	> 100	> 100	> 100	> 100	> 100	> 100	> 100	> 100	> 100	> 100	–	–	–	–	–	–	–	–	–	–
N=C(N)c1ccc(-c2ccc(-c3ccc(Cl)cn3)s2)cc1	–	–	–	5.35	–	–	–	–	–	2.67	–	–	–	1.27	2.05	–	–	–	–	–
CN(C)c1ccc2nc3c(C(=O)O)cc(=O)c(O)c-3oc2c1	42.8	> 100	60	> 100	74.8	> 100	95.2	64.6	47.5	> 100	–	–	–	–	–	–	–	–	–	–
CN(C)c1ccc(C2CC(=O)C(C#N)=C(c3ccccc3)NN2C)cc1 (stereo not given)	–	> 100	–	–	–	> 100	> 100	> 100	> 100	> 100	–	–	–	–	–	–	–	–	–	–
